Patent US5476966A, “Method for depletion of glutathione” (Cornell Research Foundation, Inc., priority 1995, dated 1995)

Tests used:
[1] = target: T1, γ-Glutamylcysteine Synthetase (Rattus norvegicus, UniProt P19468); test: Inhibition of γ-glutamylcysteine synthetase (preincubation assay); type: biochemical; conditions: for Ki: 30 min preincubation, 22° C., read-out: Kiapp, Concentration for 50% Inhibition; for inhibition of γ-glutamylcysteine synthetase (in words): ranking compared with BSO
T1 construct: Rat kidney γ-Glutamylcysteine synthetase was purified from Sprague Dawley (Taconic Farms) rats; from tissue; host or cells: rat kidney (Sprague Dawley, Taconic Farms)
T1 sequence (P19468 1-637): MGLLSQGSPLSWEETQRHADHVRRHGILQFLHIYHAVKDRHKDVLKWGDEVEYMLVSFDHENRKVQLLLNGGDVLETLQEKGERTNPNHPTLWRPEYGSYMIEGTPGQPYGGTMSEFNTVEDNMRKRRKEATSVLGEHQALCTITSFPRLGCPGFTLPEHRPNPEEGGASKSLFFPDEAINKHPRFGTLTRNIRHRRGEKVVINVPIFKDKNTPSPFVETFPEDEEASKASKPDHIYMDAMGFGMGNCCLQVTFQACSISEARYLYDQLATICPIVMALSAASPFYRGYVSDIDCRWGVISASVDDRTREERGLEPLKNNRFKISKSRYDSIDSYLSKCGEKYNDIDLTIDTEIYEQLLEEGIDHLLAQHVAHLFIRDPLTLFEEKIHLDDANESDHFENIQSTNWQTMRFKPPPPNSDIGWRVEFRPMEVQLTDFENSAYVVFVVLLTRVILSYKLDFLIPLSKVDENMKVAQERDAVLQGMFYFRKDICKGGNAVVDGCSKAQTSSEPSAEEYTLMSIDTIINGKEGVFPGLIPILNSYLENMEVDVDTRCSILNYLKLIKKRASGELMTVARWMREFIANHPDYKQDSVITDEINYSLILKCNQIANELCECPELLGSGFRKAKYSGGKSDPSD
T1 sequence (P48508 1-274 partner): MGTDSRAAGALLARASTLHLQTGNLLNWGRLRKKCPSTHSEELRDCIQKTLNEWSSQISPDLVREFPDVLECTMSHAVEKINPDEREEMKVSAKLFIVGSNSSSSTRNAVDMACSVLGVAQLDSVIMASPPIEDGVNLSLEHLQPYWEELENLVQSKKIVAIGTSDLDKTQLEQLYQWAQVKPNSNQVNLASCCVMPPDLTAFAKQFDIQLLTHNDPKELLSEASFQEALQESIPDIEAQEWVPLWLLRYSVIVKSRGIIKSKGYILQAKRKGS
Procedure: Rat kidney γ-Glutamylcysteine synthetase was purified from Sprague Dawley (Taconic Farms) rats (Seelig., Methods in Enzymology, 1985, 113:379-390).
The preincubation assay of γ-glutamylcysteine synthetase is given below. γ-Glutamylcysteine synthetase (4.6 units) was added to a mixture (final volume, 50 μl) containing 100 mM Tris/HCl (pH 8.2), 5 mM ATP, 20 mM MgCl2, 0.2 mM EDTA, and the sulfoximine being evaluated. After incubation at 22° C. for 30 minutes, a 45 μl aliquot of the preincubation mixture was added to the assay as follows.
γ-Glutamylcysteine synthetase was assayed as follows (Griffith et al, J. Biological Chem., 1979, 254:1205-1210). The reaction mixture (final volume, 1.0 ml) contained 100 mM Tris/HCl (pH 8.2), 120 mM KCl, 5 mM phosphoenolpyruvate, 20 mM MgCl2, 10 mM sodium L-glutamate, 10 mM L-α-aminobutyric acid, 0.2 mM EDTA, 0.4 mM NADH, pyruvate kinase (10 IU), and lactate dehydrogenase (10 IU). The reaction (37° C.) was initiated by the addition of γ-glutamylcysteine synthetase and the oxidation of NADH, equivalent to ADP formation, was recorded at 340 nm.

glutathione [2] = test: Tissue glutathione after oral administration of sulfoximines (Table 5); type: in vivo, mouse; conditions: 2 mmol/kg
Procedure: Male mice (Swiss Webster) were fasted overnight (about 16 hr.) L-buthionine-SR-sulfoximine (BSO, S-n-butyl homocysteine-SR-sulfoximine), L-S-cyclohexylmethyl homocysteine-SR-sulfoximine (CHMSO); L-S-2-ethylbutylhomocysteine-SR-sulfoximine (2 EtBSO, L-S-2-ethylbutyl homocysteine-SR-sulfoximine, or saline (0.9% NaCl) were administered to mice at 2 mmol/Kg by intubation (100 mM; pH about 1 with HCl (200 mM). At the times indicated, plasma and tissues were obtained and assayed for glutathione (GSH+1/2 GSSG) as described by Anderson, Methods in Enzymology, 1985, 113:548-555. (See Table 4 and 5.)

[3] = Detection of compound in mouse bile; type: in vivo
[4] = test system: mouse L1210 leukemia cells; conditions: cited from earlier work
glutathione [5] = test: Tissue glutathione levels after intraperitoneal administration of sulfoximines; type: in vivo, mouse; conditions: for % Decrease in glutathione / Glutathione level: 2 mmol/Kg i.p.
Procedure: Male mice (Swiss Webster) were fasted overnight (about 16 hr). L-3-methylbuthionine-SR-sulfoximine (3 mBSO; L-S-3-methylbutyl homocysteine-SR-sulfoximine; L-S-isopentyl homocysteine-SR-sulfoximine), L-buthionine-SR-sulfoximine(BSO; L-S-butyl homocysteine-SR-sulfoximine), L-2-methylbuthiomine-SR-sulfoximine (2 mBSO, L-S-2methylbutyl homocysteine-SR-sulfoximine), or saline (0.9% NaCl) were administered to mice at 2 mmol/Kg intraperitoneally (50 mM, Ph ^~ 7). At the times indicated, plasma and tissues were obtained and assayed for glutathione (GSH+1/2 GSSG) as described by Anderson, Methods in Enzymology, 1985, 113:548-555.

CCC(CC)CS(=N)(=O)CC[C@H](N)C(=O)O (stereo partly drawn) [2ETBSO, L-S-2-ethylbutyl homocysteine-SR-sulfoximine]
Ki [1]: 43.3 µM

N=S(=O)(CC[C@H](N)C(=O)O)CC1CCCCC1 (stereo partly drawn) [CHMSO, L-S-cyclohexylmethyl homocysteine-SR-sulfoximine]
decrease in brain glutathione levels (glutathione [2]; 12 hours, experimental error about 5%): no decrease
decrease in glutathione levels (cardio-toxicity) (glutathione [2]; 2 hours, mice): 8%
detection in mouse bile [3]: CHMSO was detected
Ki [1]: 3.8 µM
inhibition of γ-glutamylcysteine synthetase (in words) [1]: best inhibitors, about equal to BSO

N[C@@H](Cc1ccc(N(CCCl)CCCl)cc1)C(=O)O [phenylalanine mustard]
dose needed to kill the most resistant cells versus most sensitive cell lines [4]: substantially higher
conversion of phenylalanine mustard by resistant cells ([4]; glutathione-dependent dehydrochlorination): converted phenylalanine mustard to a non-toxic hydroxy derivative

CCC(C)CS(=N)(=O)CC[C@H](N)C(=O)O (stereo partly drawn) [2m BSO, L-S-2methylbutyl homocysteine-SR-sulfoximine]
% Decrease in glutathione (glutathione [5]; brain, 2 hr): 5%
Glutathione level (glutathione [5]; brain, 2 hr): 2.19 µmol/g
% Decrease in glutathione (glutathione [5]; brain, 12 hr): 0%
Glutathione level (glutathione [5]; brain, 12 hr): 2.18 µmol/g
% Decrease in glutathione (glutathione [5]; heart, 2 hr): 14%
Glutathione level (glutathione [5]; heart, 2 hr): 1.15 µmol/g
% Decrease in glutathione (glutathione [5]; heart, 12 hr): 8%
Glutathione level (glutathione [5]; heart, 12 hr): 1.19 µmol/g
% Decrease in glutathione (glutathione [5]; kidney, 2 hr): 25%
Glutathione level (glutathione [5]; kidney, 2 hr): 2.08 µmol/g
% Decrease in glutathione (glutathione [5]; kidney, 12 hr): 0%
Glutathione level (glutathione [5]; kidney, 12 hr): 4.10 µmol/g
% Decrease in glutathione (glutathione [5]; liver, 2 hr): 18%
Glutathione level (glutathione [5]; liver, 2 hr): 4.49 µmol/g
% Decrease in glutathione (glutathione [5]; liver, 12 hr): 0%
Glutathione level (glutathione [5]; liver, 12 hr): 5.05 µmol/g
% Decrease in glutathione (glutathione [5]; plasma, 2 hr): 15%
Glutathione level (glutathione [5]; plasma, 2 hr): 25.2 µM
% Decrease in glutathione (glutathione [5]; plasma, 12 hr): 8%
Glutathione level (glutathione [5]; plasma, 12 hr): 26.3 µM
Ki [1]: 18.4 µM

CC(C)CCS(=N)(=O)CC[C@H](N)C(=O)O (stereo partly drawn) [3m BSO, L-S-3-methylbutyl homocysteine-SR-sulfoximine]
% Decrease in glutathione (glutathione [5]; brain, 2 hr): 10%
Glutathione level (glutathione [5]; brain, 2 hr): 2.09 µmol/g
% Decrease in glutathione (glutathione [5]; brain, 12 hr): 10%
Glutathione level (glutathione [5]; brain, 12 hr): 1.92 µmol/g
% Decrease in glutathione (glutathione [5]; heart, 2 hr): 16%
Glutathione level (glutathione [5]; heart, 2 hr): 1.13 µmol/g
% Decrease in glutathione (glutathione [5]; heart, 12 hr): 57%
Glutathione level (glutathione [5]; heart, 12 hr): 0.55 µmol/g
% Decrease in glutathione (glutathione [5]; kidney, 2 hr): 81%
Glutathione level (glutathione [5]; kidney, 2 hr): 0.73 µmol/g
% Decrease in glutathione (glutathione [5]; kidney, 12 hr): 53%
Glutathione level (glutathione [5]; kidney, 12 hr): 1.69 µmol/g
% Decrease in glutathione (glutathione [5]; liver, 2 hr): 77%
Glutathione level (glutathione [5]; liver, 2 hr): 1.26 µmol/g
% Decrease in glutathione (glutathione [5]; liver, 12 hr): 22%
Glutathione level (glutathione [5]; liver, 12 hr): 3.86 µmol/g
depletion of liver glutathione compared with BSO (glutathione [5]; liver, after 2 hr): more effective than BSO
% Decrease in glutathione (glutathione [5]; plasma, 2 hr): 64%
Glutathione level (glutathione [5]; plasma, 2 hr): 10.6 µM
% Decrease in glutathione (glutathione [5]; plasma, 12 hr): 30%
Glutathione level (glutathione [5]; plasma, 12 hr): 19.2 µM
Ki [1]: 0.6 µM
inhibition of γ-glutamylcysteine synthetase (in words) [1]: best inhibitors, about equal to BSO
